{
  "source": "paper PMC11842588",
  "about": "“A first-in-class selective inhibitor of ERK1/2 and ERK5 overcomes drug resistance with a single-molecule strategy” (Signal Transduction and Targeted Therapy, 2025)",
  "assay_in_all_cases": "Kinase profiling",
  "format_in_all_cases": "biochemical",
  "key": {"AAK1(h)": {"molecular_target": "T1, AAK1(h) (Homo sapiens, UniProt Q2M2I8)", "T1 construct": "purchased Eurofins Cerep SA (KinaseProfiler)", "method": "(§1) 380 kinases inhibitory activities of SKLB-D18 were conducted by Eurofins Cerep SA. The result was illustrated by kinase tree (http://www.kinhub.org/kinmap/)."}, "ALK4(h)": {"molecular_target": "T2, ALK4(h) (Homo sapiens, UniProt P36896)", "T2 construct": "purchased Eurofins Cerep SA (KinaseProfiler)", "method": "as §1"}, "Axl(h)": {"molecular_target": "T3, Axl(h) (Homo sapiens, UniProt P30530)", "T3 construct": "purchased Eurofins Cerep SA (KinaseProfiler)", "T3 sequence (P30530 26-894)": "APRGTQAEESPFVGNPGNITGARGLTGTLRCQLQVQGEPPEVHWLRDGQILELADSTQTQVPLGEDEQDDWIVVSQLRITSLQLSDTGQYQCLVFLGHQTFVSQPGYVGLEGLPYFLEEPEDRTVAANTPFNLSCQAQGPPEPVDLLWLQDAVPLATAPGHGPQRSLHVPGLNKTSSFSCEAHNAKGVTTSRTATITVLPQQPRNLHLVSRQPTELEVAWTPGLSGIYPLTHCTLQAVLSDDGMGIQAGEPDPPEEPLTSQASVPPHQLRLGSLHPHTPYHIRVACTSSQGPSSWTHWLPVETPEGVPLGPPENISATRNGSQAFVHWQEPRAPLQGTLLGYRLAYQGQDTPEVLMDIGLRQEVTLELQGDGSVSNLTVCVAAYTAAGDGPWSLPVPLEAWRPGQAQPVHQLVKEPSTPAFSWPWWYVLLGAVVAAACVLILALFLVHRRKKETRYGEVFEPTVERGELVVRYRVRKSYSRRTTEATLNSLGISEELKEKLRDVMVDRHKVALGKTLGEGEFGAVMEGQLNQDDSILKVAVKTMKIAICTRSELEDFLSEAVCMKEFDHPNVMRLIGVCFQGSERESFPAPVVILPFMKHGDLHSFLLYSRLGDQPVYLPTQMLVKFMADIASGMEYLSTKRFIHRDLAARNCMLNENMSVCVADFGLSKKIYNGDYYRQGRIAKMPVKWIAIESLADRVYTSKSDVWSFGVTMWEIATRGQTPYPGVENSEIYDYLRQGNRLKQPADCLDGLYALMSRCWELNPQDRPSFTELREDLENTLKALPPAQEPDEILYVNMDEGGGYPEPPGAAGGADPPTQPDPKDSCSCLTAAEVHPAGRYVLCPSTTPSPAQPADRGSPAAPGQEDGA", "method": "as §1"}, "BrSK1(h)": {"molecular_target": "T4, BrSK1(h) (Homo sapiens, UniProt Q8TDC3)", "T4 construct": "purchased Eurofins Cerep SA (KinaseProfiler)", "method": "as §1"}, "CDK5/p25(h)": {"molecular_target": "T5, CDK5/p25(h) (Homo sapiens, UniProt Q00535)", "T5 construct": "purchased Eurofins Cerep SA (KinaseProfiler)", "method": "as §1"}, "CDK7/cyclinH/MAT1(h)": {"molecular_target": "T6, CDK7/cyclinH/MAT1(h) (Homo sapiens, UniProt P50613)", "T6 construct": "purchased Eurofins Cerep SA (KinaseProfiler)", "T6 sequence (P50613 whole entry)": "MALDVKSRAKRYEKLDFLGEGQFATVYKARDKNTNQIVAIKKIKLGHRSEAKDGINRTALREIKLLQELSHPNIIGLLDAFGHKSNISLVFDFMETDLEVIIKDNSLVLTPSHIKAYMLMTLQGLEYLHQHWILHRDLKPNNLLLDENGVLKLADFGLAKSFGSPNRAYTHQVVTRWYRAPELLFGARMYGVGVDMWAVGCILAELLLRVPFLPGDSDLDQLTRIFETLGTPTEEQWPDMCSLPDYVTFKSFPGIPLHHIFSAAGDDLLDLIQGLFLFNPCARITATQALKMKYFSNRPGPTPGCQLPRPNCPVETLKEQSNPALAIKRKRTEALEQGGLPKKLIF", "T6 sequence (P51946 whole entry partner)": "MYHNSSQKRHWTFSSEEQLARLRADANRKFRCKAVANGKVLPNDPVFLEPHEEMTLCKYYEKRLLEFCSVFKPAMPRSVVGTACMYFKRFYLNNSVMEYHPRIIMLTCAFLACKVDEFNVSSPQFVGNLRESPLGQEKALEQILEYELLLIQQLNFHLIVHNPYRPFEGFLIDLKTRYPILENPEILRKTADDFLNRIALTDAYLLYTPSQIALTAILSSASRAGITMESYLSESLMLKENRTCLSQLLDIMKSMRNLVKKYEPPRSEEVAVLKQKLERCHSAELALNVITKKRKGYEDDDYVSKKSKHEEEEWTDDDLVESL", "T6 sequence (P51948 whole entry partner)": "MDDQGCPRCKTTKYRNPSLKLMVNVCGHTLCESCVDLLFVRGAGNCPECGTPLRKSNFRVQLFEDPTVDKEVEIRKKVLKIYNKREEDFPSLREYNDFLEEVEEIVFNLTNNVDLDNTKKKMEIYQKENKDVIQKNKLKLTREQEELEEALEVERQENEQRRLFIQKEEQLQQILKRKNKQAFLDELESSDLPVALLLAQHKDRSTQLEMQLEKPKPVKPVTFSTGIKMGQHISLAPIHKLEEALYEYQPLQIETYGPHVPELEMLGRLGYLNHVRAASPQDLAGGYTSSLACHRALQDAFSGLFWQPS", "method": "as §1"}, "CHK2(h)": {"molecular_target": "T7, CHK2(h) (Homo sapiens, UniProt O96017)", "T7 construct": "purchased Eurofins Cerep SA (KinaseProfiler)", "method": "as §1"}, "CaMKIβ(h)": {"molecular_target": "T8, CaMKIβ(h) (Homo sapiens, UniProt Q6P2M8)", "T8 construct": "purchased Eurofins Cerep SA (KinaseProfiler)", "T8 sequence (Q6P2M8 whole entry)": "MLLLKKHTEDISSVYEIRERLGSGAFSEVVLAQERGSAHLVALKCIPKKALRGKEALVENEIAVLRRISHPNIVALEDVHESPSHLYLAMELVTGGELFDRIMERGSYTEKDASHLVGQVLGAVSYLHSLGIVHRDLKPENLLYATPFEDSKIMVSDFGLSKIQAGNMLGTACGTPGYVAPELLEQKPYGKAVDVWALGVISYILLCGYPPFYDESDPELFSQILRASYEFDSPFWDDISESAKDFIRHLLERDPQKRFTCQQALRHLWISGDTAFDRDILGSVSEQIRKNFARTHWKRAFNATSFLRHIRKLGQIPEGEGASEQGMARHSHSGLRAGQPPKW", "method": "as §1"}, "CaMKK1(h)": {"molecular_target": "T9, CaMKK1(h) (Homo sapiens, UniProt Q8N5S9)", "T9 construct": "purchased Eurofins Cerep SA (KinaseProfiler)", "method": "as §1"}, "DNA-PK(h)": {"molecular_target": "T10, DNA-PK(h) (Homo sapiens, UniProt P78527)", "T10 construct": "purchased Eurofins Cerep SA (KinaseProfiler)", "method": "as §1"}, "DYRK1B(h)": {"molecular_target": "T11, DYRK1B(h) (Homo sapiens, UniProt Q9Y463)", "T11 construct": "purchased Eurofins Cerep SA (KinaseProfiler)", "method": "as §1"}, "EphA2(h)": {"molecular_target": "T12, EphA2(h) (Homo sapiens, UniProt P29317)", "T12 construct": "purchased Eurofins Cerep SA (KinaseProfiler)", "method": "as §1"}, "FGFR3(h)": {"molecular_target": "T13, FGFR3(h) (Homo sapiens, UniProt P22607)", "T13 construct": "purchased Eurofins Cerep SA (KinaseProfiler)", "method": "as §1"}, "GRK3(h)": {"molecular_target": "T14, GRK3(h) (Homo sapiens, UniProt P35626)", "T14 construct": "purchased Eurofins Cerep SA (KinaseProfiler)", "method": "as §1"}, "GRK4(h)": {"molecular_target": "T15, GRK4(h) (Homo sapiens, UniProt P32298)", "T15 construct": "purchased Eurofins Cerep SA (KinaseProfiler)", "T15 sequence (P32298 whole entry)": "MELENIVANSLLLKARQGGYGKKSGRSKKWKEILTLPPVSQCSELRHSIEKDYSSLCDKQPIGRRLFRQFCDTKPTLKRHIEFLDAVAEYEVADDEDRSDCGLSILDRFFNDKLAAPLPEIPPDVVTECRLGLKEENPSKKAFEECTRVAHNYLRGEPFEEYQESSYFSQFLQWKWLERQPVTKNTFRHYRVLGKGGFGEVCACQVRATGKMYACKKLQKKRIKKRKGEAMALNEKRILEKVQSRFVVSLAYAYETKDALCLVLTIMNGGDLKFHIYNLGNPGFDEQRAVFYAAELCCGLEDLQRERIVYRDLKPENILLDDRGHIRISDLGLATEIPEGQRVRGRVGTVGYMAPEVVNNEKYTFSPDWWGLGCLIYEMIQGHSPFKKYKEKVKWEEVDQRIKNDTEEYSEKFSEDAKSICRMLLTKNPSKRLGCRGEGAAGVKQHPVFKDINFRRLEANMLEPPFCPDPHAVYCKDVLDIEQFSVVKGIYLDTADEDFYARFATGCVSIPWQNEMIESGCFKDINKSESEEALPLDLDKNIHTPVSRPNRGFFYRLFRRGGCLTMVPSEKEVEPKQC", "method": "as §1"}, "GSK3α(h)": {"molecular_target": "T16, GSK3α(h) (Homo sapiens, UniProt P49840)", "T16 construct": "purchased Eurofins Cerep SA (KinaseProfiler)", "method": "as §1"}, "IRAK1(h)": {"molecular_target": "T17, IRAK1(h) (Homo sapiens, UniProt P51617)", "T17 construct": "purchased Eurofins Cerep SA (KinaseProfiler)", "method": "as §1"}, "IRAK4(h)": {"molecular_target": "T18, IRAK4(h) (Homo sapiens, UniProt Q9NWZ3)", "T18 construct": "purchased Eurofins Cerep SA (KinaseProfiler)", "method": "as §1"}, "JNK1α1(h)": {"molecular_target": "T19, JNK1α1(h) (Homo sapiens, UniProt P45983)", "T19 construct": "purchased Eurofins Cerep SA (KinaseProfiler)", "method": "as §1"}, "MKK6(h)": {"molecular_target": "T20, MKK6(h) (Homo sapiens, UniProt P52564)", "T20 construct": "purchased Eurofins Cerep SA (KinaseProfiler)", "method": "as §1"}, "MLK1(h)": {"molecular_target": "T21, MLK1(h) (Homo sapiens, UniProt P80192)", "T21 construct": "purchased Eurofins Cerep SA (KinaseProfiler)", "method": "as §1"}, "MSK1(h)": {"molecular_target": "T22, MSK1(h) (Homo sapiens, UniProt O75582)", "T22 construct": "purchased Eurofins Cerep SA (KinaseProfiler)", "method": "as §1"}, "Met(h)": {"molecular_target": "T23, Met(h) (Homo sapiens, UniProt P08581)", "T23 construct": "purchased Eurofins Cerep SA (KinaseProfiler)", "method": "as §1"}, "NDR2(h)": {"molecular_target": "T24, NDR2(h) (Homo sapiens, UniProt Q9Y2H1)", "T24 construct": "purchased Eurofins Cerep SA (KinaseProfiler)", "method": "as §1"}, "NEK2(h)": {"molecular_target": "T25, NEK2(h) (Homo sapiens, UniProt P51955)", "T25 construct": "purchased Eurofins Cerep SA (KinaseProfiler)", "method": "as §1"}, "NLK(h)": {"molecular_target": "T26, NLK(h) (Homo sapiens, UniProt Q9UBE8)", "T26 construct": "purchased Eurofins Cerep SA (KinaseProfiler)", "method": "as §1"}, "OSR1(h)": {"molecular_target": "T27, OSR1(h) (Homo sapiens, UniProt O95747)", "T27 construct": "purchased Eurofins Cerep SA (KinaseProfiler)", "method": "as §1"}, "PDGFRβ(h)": {"molecular_target": "T28, PDGFRβ(h) (Homo sapiens, UniProt P09619)", "T28 construct": "purchased Eurofins Cerep SA (KinaseProfiler)", "T28 sequence (P09619 33-1106)": "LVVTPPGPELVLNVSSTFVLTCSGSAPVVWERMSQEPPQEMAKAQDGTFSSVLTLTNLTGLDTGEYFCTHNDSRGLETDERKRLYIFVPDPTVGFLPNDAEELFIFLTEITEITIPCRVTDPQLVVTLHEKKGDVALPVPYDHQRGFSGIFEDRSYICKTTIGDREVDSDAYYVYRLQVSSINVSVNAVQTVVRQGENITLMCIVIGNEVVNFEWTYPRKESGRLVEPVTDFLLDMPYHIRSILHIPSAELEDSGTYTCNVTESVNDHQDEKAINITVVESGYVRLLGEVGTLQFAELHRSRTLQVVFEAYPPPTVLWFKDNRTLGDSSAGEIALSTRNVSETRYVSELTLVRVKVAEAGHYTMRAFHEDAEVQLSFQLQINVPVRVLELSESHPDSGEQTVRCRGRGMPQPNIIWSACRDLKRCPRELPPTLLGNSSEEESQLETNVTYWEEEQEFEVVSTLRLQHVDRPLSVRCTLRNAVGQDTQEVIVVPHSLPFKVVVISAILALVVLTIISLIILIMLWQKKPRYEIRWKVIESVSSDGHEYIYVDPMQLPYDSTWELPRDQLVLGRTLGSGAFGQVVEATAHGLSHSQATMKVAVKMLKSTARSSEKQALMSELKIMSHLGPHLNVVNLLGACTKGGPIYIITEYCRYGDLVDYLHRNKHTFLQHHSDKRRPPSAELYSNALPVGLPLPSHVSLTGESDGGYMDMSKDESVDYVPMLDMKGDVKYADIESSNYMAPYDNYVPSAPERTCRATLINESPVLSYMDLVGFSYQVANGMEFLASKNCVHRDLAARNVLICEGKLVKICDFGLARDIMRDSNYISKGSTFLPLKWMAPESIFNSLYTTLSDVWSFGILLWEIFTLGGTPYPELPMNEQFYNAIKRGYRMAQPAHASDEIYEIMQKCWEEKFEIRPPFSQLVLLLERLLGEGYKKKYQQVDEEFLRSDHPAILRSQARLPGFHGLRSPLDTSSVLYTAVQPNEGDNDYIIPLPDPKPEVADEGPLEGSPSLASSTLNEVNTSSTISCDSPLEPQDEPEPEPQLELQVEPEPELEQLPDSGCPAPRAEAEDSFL", "method": "as §1"}, "PDHK2(h)": {"molecular_target": "T29, PDHK2(h) (Homo sapiens, UniProt Q15119)", "T29 construct": "purchased Eurofins Cerep SA (KinaseProfiler)", "method": "as §1"}, "PI3 Kinase (p120g)(h)": {"molecular_target": "T30, PI3 Kinase (p120g)(h) (Homo sapiens, UniProt P48736)", "T30 construct": "purchased Eurofins Cerep SA (KinaseProfiler)", "method": "as §1"}, "PKCγ(h)": {"molecular_target": "T31, PKCγ(h) (Homo sapiens, UniProt P05129)", "T31 construct": "purchased Eurofins Cerep SA (KinaseProfiler)", "method": "as §1"}, "SNRK(h)": {"molecular_target": "T32, SNRK(h) (Homo sapiens, UniProt Q9NRH2)", "T32 construct": "purchased Eurofins Cerep SA (KinaseProfiler)", "T32 sequence (Q9NRH2 whole entry)": "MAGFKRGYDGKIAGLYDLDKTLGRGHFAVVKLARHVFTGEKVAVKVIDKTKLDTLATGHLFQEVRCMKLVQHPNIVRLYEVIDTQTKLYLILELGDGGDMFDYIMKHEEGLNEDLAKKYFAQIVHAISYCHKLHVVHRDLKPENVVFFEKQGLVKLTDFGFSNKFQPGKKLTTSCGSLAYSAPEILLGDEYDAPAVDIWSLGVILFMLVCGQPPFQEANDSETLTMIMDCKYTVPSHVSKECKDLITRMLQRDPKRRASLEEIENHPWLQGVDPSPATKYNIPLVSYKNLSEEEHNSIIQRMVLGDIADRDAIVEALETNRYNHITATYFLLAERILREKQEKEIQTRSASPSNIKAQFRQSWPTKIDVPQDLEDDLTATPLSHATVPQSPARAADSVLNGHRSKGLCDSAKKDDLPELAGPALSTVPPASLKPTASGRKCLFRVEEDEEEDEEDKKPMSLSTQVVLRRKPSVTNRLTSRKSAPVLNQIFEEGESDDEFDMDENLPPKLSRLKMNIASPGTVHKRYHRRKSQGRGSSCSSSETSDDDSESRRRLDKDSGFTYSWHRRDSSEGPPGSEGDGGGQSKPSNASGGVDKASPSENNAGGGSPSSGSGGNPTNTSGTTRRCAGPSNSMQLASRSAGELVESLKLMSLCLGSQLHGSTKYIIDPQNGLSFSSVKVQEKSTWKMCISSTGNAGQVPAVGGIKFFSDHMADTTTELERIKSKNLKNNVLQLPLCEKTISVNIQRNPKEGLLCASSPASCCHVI", "method": "as §1"}, "SRMS(h)": {"molecular_target": "T33, SRMS(h) (Homo sapiens, UniProt Q9H3Y6)", "T33 construct": "purchased Eurofins Cerep SA (KinaseProfiler)", "method": "as §1"}, "SRPK2(h)": {"molecular_target": "T34, SRPK2(h) (Homo sapiens, UniProt P78362)", "T34 construct": "purchased Eurofins Cerep SA (KinaseProfiler)", "method": "as §1"}, "STK16(h)": {"molecular_target": "T35, STK16(h) (Homo sapiens, UniProt O75716)", "T35 construct": "purchased Eurofins Cerep SA (KinaseProfiler)", "method": "as §1"}, "STK32B(h)": {"molecular_target": "T36, STK32B(h) (Homo sapiens, UniProt Q9NY57)", "T36 construct": "purchased Eurofins Cerep SA (KinaseProfiler)", "method": "as §1"}, "TSSK2(h)": {"molecular_target": "T37, TSSK2(h) (Homo sapiens, UniProt Q96PF2)", "T37 construct": "purchased Eurofins Cerep SA (KinaseProfiler)", "T37 sequence (Q96PF2 whole entry)": "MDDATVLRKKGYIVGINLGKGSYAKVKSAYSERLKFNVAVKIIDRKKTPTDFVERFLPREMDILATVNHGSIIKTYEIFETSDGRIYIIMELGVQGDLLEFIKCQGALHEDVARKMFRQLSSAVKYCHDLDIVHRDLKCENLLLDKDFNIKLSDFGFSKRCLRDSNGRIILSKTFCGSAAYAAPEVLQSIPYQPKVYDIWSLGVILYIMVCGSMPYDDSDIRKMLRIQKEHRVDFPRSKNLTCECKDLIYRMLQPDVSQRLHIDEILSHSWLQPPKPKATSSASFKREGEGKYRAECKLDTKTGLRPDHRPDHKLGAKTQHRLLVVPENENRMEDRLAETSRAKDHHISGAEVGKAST", "method": "as §1"}, "TTK(h)": {"molecular_target": "T38, TTK(h) (Homo sapiens, UniProt P33981)", "T38 construct": "purchased Eurofins Cerep SA (KinaseProfiler)", "method": "as §1"}, "ULK1(h)": {"molecular_target": "T39, ULK1(h) (Homo sapiens, UniProt O75385)", "T39 construct": "purchased Eurofins Cerep SA (KinaseProfiler)", "method": "as §1"}, "c-RAF(h)": {"molecular_target": "T40, c-RAF(h) (Homo sapiens, UniProt P04049)", "T40 construct": "purchased Eurofins Cerep SA (KinaseProfiler)", "method": "as §1"}, "eEF-2K(h)": {"molecular_target": "T41, eEF-2K(h) (Homo sapiens, UniProt O00418)", "T41 construct": "purchased Eurofins Cerep SA (KinaseProfiler)", "method": "as §1"}},
  "data": [
    {"smiles": "CN(C)Cc1cccc(Nc2ncc(Cl)c(-c3csc(C(=O)NN4CCOCC4)c3)n2)c1", "note": "[SKLB-D18, 4-(5-chloro-2-((3-((dimethylamino)methyl)phenyl)amino)pyrimidin-4-yl)-N-morpholinothiophene-2-carboxamide]", "values": [
      {"measurement": "inhibition at 1 µM", "setting": "AAK1(h)", "value": 58, "unit": "%"},
      {"measurement": "inhibition at 1 µM", "setting": "ALK4(h)", "value": 26, "unit": "%"},
      {"measurement": "inhibition at 1 µM", "setting": "Axl(h)", "value": 36, "unit": "%"},
      {"measurement": "inhibition at 1 µM", "setting": "BrSK1(h)", "value": 2, "unit": "%"},
      {"measurement": "inhibition at 1 µM", "setting": "CDK5/p25(h)", "value": 55, "unit": "%"},
      {"measurement": "inhibition at 1 µM", "setting": "CDK7/cyclinH/MAT1(h)", "value": 57, "unit": "%"},
      {"measurement": "inhibition at 1 µM", "setting": "CHK2(h)", "value": 19, "unit": "%"},
      {"measurement": "inhibition at 1 µM", "setting": "CaMKIβ(h)", "value": 1, "unit": "%"},
      {"measurement": "inhibition at 1 µM", "setting": "CaMKK1(h)", "value": 12, "unit": "%"},
      {"measurement": "inhibition at 1 µM", "setting": "DNA-PK(h)", "value": 10, "unit": "%"},
      {"measurement": "inhibition at 1 µM", "setting": "DYRK1B(h)", "value": 67, "unit": "%"},
      {"measurement": "inhibition at 1 µM", "setting": "EphA2(h)", "value": 17, "unit": "%"},
      {"measurement": "inhibition at 1 µM", "setting": "FGFR3(h)", "value": 55, "unit": "%"},
      {"measurement": "inhibition at 1 µM", "setting": "GRK3(h)", "value": 2, "unit": "%"},
      {"measurement": "inhibition at 1 µM", "setting": "GRK4(h)", "value": 16, "unit": "%"},
      {"measurement": "inhibition at 1 µM", "setting": "GSK3α(h)", "value": 58, "unit": "%"},
      {"measurement": "inhibition at 1 µM", "setting": "IRAK1(h)", "value": 60, "unit": "%"},
      {"measurement": "inhibition at 1 µM", "setting": "IRAK4(h)", "value": 47, "unit": "%"},
      {"measurement": "inhibition at 1 µM", "setting": "JNK1α1(h)", "value": 40, "unit": "%"},
      {"measurement": "inhibition at 1 µM", "setting": "MKK6(h)", "value": 5, "unit": "%"},
      {"measurement": "inhibition at 1 µM", "setting": "MLK1(h)", "value": 61, "unit": "%"},
      {"measurement": "inhibition at 1 µM", "setting": "MSK1(h)", "value": 17, "unit": "%"},
      {"measurement": "inhibition at 1 µM", "setting": "Met(h)", "value": 61, "unit": "%"},
      {"measurement": "inhibition at 1 µM", "setting": "NDR2(h)", "value": 27, "unit": "%"},
      {"measurement": "inhibition at 1 µM", "setting": "NEK2(h)", "value": 42, "unit": "%"},
      {"measurement": "inhibition at 1 µM", "setting": "NLK(h)", "value": 26, "unit": "%"},
      {"measurement": "inhibition at 1 µM", "setting": "OSR1(h)", "value": 28, "unit": "%"},
      {"measurement": "inhibition at 1 µM", "setting": "PDGFRβ(h)", "value": 21, "unit": "%"},
      {"measurement": "inhibition at 1 µM", "setting": "PDHK2(h)", "value": 14, "unit": "%"},
      {"measurement": "inhibition at 1 µM", "setting": "PI3 Kinase (p120g)(h)", "value": 4, "unit": "%"},
      {"measurement": "inhibition at 1 µM", "setting": "PKCγ(h)", "value": 27, "unit": "%"},
      {"measurement": "inhibition at 1 µM", "setting": "SNRK(h)", "value": -14, "unit": "%"},
      {"measurement": "inhibition at 1 µM", "setting": "SRMS(h)", "value": 11, "unit": "%"},
      {"measurement": "inhibition at 1 µM", "setting": "SRPK2(h)", "value": 9, "unit": "%"},
      {"measurement": "inhibition at 1 µM", "setting": "STK16(h)", "value": 85, "unit": "%"},
      {"measurement": "inhibition at 1 µM", "setting": "STK32B(h)", "value": -3, "unit": "%"},
      {"measurement": "inhibition at 1 µM", "setting": "TSSK2(h)", "value": -2, "unit": "%"},
      {"measurement": "inhibition at 1 µM", "setting": "TTK(h)", "value": 34, "unit": "%"},
      {"measurement": "inhibition at 1 µM", "setting": "ULK1(h)", "value": 49, "unit": "%"},
      {"measurement": "inhibition at 1 µM", "setting": "c-RAF(h)", "value": 65, "unit": "%"},
      {"measurement": "inhibition at 1 µM", "setting": "eEF-2K(h)", "value": -2, "unit": "%"}
    ]}
  ]
}
